The test system of data set [1] is T. b. brucei TREU 667. Put plainly: Efficacy in mouse model for chronic (CNS, stage 2) HAT. The data set is classed as in vivo. As to the method: For evaluation against late-stage CNS infections, a chronic disease inducing strain (TREU 667) of T. b. brucei was used.[19] Mice were divided into groups of ten and each animal was infected i.p. with 1×10^4 parasites (200 μL). […] Louis, MO) administered by i.p. injection on day 4 after infection. […] Animals were checked for parasitemia once per week and were immediately removed from the cages and euthanized upon recrudescence. Animals were considered to be cured of a CNS infection if they were […] for at least 180 days after the end of the treatment period.

Data set [2] deals with T1, CYP2C19 (Homo sapiens, UniProt P33261).
T1 construct: purchased Promega Inc., Madison, WI
T1 sequence (P33261 whole entry): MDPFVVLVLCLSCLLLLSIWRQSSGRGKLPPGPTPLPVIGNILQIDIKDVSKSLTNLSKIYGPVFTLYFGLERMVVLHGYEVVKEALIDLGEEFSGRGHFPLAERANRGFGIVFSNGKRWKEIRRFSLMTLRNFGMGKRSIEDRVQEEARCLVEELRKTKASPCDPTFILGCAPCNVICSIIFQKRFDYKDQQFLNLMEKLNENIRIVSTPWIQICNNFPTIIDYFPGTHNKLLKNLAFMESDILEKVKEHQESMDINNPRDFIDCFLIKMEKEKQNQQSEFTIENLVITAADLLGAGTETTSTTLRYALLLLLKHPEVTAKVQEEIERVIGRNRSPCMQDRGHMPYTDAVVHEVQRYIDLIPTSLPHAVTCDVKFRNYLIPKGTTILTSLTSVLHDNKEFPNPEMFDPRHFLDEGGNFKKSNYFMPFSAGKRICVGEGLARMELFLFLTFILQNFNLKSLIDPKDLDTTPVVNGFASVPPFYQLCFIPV
Put plainly: P450-Glo cytochrome P450 inhibition. The format is biochemical. The note with it: human recombinant CYP2C19. The method, then: (§1) The potential for compound to exert drug-drug interactions that are mediated through inhibition of cytochrome P450 activities was assessed using P450-Glo assay kits (Promega Inc., Madison, WI). Assays for human cytochrome P450 isoforms 3A4, 1A2, 2C9, 2C19, and 2D6 were performed in triplicate according to the manufacturer's instructions over the concentration range 1–100 µM (n = 6 levels). Briefly, SCYX-7158 was added to membrane preparations containing human recombinant CYP450 enzymes together with luminogenic substrates specific to each isoform. Specific CYP450 inhibitors were included as positive controls (ketoconazole, CYP3A4; alpha-napthoflavone, 1A2; sulfaphenazole, CYP2C9; troglitazone, 2C19, and quinidine, CYP2D6). Reactions were initiated by addition of NADPH-regenerating solution and were allowed to incubate for an additional 15–30 min (isoform dependent). Luciferin detection reagent, containing the luciferin-labeled probe substrate, was then added. Luminescence was recorded on an EnVision Multilabel Plate Reader. Calculation of IC50 concentrations for each enzyme was determined using GraphPad Prism (V5.01).

Data set [3] deals with T2, CYP1A2 (Homo sapiens, UniProt P05177).
T2 construct: purchased Promega Inc., Madison, WI
T2 sequence (P05177 whole entry): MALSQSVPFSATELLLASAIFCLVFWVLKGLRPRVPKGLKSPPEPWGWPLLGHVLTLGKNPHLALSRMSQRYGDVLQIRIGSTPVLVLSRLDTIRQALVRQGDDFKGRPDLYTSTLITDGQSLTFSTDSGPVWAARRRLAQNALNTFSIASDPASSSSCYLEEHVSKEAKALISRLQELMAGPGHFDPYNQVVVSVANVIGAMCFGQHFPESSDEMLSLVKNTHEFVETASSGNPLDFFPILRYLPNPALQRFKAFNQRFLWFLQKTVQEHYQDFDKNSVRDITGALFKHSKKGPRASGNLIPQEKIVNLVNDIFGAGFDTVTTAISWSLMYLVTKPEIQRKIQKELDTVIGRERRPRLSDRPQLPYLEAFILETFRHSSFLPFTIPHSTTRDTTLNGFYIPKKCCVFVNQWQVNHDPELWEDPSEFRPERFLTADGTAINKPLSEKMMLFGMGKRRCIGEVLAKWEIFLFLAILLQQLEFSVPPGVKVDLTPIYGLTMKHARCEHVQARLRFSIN
The data set can be described thus: P450-Glo cytochrome P450 inhibition. The note with it: human recombinant CYP1A2. The format is biochemical. As to the method: as §1

The target of data set [4] is T3, CYP3A4 (Homo sapiens, UniProt P08684).
T3 construct: purchased Promega Inc., Madison, WI
T3 sequence (P08684 whole entry): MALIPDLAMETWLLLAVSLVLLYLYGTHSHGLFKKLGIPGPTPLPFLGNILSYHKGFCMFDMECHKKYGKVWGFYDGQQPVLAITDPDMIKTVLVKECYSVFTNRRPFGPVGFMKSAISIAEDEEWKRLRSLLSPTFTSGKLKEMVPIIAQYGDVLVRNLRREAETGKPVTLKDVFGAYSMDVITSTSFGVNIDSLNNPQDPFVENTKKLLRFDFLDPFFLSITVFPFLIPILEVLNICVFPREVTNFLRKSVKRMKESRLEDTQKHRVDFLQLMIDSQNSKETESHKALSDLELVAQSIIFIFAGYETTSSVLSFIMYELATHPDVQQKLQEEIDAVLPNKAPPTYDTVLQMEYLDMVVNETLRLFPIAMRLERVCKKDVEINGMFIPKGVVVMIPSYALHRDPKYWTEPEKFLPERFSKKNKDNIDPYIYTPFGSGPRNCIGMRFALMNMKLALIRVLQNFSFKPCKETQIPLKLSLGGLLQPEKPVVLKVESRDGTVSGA
Put plainly: P450-Glo cytochrome P450 inhibition. The format is biochemical. As to conditions: human recombinant CYP3A4. As to the method: as §1

Data set [5] addresses T4, CYP2D6 (Homo sapiens, UniProt P10635).
T4 construct: purchased Promega Inc., Madison, WI
The data set can be described thus: P450-Glo cytochrome P450 inhibition. The note with it: human recombinant CYP2D6. The format is biochemical. The method, then:
as §1

For data set [6], the target named is T5, CYP2C9 (Homo sapiens, UniProt P11712).
T5 construct: purchased Promega Inc., Madison, WI
T5 sequence (P11712 whole entry): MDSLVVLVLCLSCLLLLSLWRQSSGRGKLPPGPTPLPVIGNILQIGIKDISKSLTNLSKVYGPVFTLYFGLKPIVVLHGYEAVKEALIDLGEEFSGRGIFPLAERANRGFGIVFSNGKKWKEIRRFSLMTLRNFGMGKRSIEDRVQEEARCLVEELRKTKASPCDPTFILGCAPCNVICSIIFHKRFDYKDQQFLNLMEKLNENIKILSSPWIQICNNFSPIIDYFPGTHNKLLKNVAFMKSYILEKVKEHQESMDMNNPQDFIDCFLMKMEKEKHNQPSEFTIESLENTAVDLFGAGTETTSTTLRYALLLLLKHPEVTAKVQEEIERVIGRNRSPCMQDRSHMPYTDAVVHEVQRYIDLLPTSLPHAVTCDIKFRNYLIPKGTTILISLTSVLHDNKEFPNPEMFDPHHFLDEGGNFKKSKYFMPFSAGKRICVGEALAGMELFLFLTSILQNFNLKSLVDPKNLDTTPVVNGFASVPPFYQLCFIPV
The data set can be described thus: P450-Glo cytochrome P450 inhibition. The format is biochemical. The note with it: human recombinant CYP2C9. The method, then:
as §1

The target of data set [7] is T6, P-glycoprotein (human MDR1) (Homo sapiens, UniProt P08183).
T6 construct: expressed in transfected cells; host or cells: MDCKII (canine kidney) cells, provided by P. Borst
T6 sequence (P08183 whole entry): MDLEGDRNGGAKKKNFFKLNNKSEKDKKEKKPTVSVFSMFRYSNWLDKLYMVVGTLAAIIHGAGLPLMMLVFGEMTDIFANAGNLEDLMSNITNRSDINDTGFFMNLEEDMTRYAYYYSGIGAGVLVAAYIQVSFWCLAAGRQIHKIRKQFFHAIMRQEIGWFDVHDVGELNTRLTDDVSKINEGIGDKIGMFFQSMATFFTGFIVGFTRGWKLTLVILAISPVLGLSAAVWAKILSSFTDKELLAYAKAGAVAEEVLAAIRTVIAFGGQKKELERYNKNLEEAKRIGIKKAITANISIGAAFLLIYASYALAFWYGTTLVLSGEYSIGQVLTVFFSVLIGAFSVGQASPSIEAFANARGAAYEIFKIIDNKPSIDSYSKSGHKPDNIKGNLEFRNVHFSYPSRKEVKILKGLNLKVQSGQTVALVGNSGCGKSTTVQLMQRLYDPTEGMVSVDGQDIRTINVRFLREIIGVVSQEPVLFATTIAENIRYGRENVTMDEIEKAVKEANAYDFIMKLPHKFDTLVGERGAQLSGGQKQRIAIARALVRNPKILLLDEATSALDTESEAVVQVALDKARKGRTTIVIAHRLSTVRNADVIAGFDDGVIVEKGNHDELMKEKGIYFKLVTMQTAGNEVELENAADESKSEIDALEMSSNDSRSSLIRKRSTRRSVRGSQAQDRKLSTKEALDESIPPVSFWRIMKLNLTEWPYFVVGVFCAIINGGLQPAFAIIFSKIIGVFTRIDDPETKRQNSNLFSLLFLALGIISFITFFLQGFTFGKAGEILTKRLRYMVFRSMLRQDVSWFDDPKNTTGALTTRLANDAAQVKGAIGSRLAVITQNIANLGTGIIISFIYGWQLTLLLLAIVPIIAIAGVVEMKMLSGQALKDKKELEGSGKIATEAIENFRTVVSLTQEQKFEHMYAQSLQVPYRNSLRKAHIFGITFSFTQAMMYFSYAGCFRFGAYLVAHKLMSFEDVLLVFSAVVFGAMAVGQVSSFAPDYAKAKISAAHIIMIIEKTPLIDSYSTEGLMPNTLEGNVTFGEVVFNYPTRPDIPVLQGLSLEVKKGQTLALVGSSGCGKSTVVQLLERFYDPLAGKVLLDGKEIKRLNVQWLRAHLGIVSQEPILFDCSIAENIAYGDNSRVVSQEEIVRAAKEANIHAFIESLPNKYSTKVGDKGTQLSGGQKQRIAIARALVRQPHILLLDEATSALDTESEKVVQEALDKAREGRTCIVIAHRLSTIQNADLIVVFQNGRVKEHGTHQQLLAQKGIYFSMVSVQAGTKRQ
Put plainly: MDCKII-hMDR1 monolayer permeability and P-gp efflux. The format is in vitro ADME. As to conditions: dog. The method, then: (§2) T. b. brucei was cultured in complete HMI-9 medium,[20] which contains 10% fetal bovine serum (FBS) (Invitrogen, Carlsbad, CA), 10% Serum Plus medium (SAFC Biosciences, Lenexa, KS), and 100 units/mL penicillin and 0.1 mg/mL streptomycin. The trypanosomes were propagated in T-25 vented cap flasks (Corning Inc., Lowell, MA) at 37°C and 5% CO2 with humidity. To ensure log growth phase, trypanosomes were sub-cultured at appropriate dilutions (typically 1∶100) every 2–3 days in fresh HMI-9 medium. T. b. rhodesiense parasites were grown in MEM medium with Earle's salts supplemented with 15% horse serum. For T. b. gambiense, the MEM medium was supplemented with 5% heat-inactivated fetal calf serum (FCS) and 15% human serum.[21] L929 mouse fibroblast cells (ATCC CCL1, American Type Culture Collection, Rockville, MD) were used to determine parasite versus mammalian cell selectivity. Cells were cultured in Dulbecco's Modified Eagle Medium (DMEM), supplemented with 10% FBS, L-glutamine and 100 units/mL penicillin and 0.1 mg/mL streptomycin. MDCKII-hMDR1 cells were generously provided by P. Borst at the Netherlands Kancer Institute. Cells were cultured in DMEM with Glutamax, 10% (v/v) FBS, and 100 units/mL penicillin and 0.1 mg/mL streptomycin. Cell monolayers were fed with cell culture media 24 h after seeding and used for permeability studies 3 days later.
(§3) The propensity of the compound to cross the blood-brain barrier was examined using an in vitro MDCKII-hMDR1 transwell assay.[24] MDCKII-hMDR1 cells were seeded at density of 3×10^5 cells per well onto microporous polycarbonate membranes in 12 well Costar Transwell plates (Corning Inc., Lowell, MA). The cells were used for permeability studies 3 days later. Trans-epithelial resistance (TEER) was measured for each insert to ensure the integrity of the monolayer (acceptable TEER >50 Ωcm^2).
(§4) The permeability and propensity for P-gp-mediated efflux was evaluated by adding each compound at a concentration of 3 µM, in the presence or absence of 2 µM GF120918, to the apical compartment. Competency of the P-gp efflux transporter was confirmed by assay of propranolol (non-substrate) and amprenavir (substrate). Cell monolayers were incubated in triplicate with shaking (160 rpm) at 37°C in a 5% CO2-enriched humidified atmosphere for 1 h. Samples were removed from the apical and basolateral compartments after incubation and assayed for test compound concentrations by LC-MS/MS. Values for mass balance, PappA→B, PappA→B+GF918, and absorption quotient (AQ) were calculated for each compound.[25], [26], [27] Acceptance criterion for mass balance was 70–120%.

Data set [8] has as its target T7, MDCKII-hMDR1 cells (P-glycoprotein) (Homo sapiens, UniProt P08183).
T7 construct: expressed in transfected cells; host or cells: MDCKII (canine kidney) cells, provided by P. Borst
The data set is described as above. The format is in vitro ADME. As to the method:
as §2, §3, §4

Data set [9] concerns T. b. brucei 427. The data set can be described thus: Time-kill assay (ATP content, CellTiter Glo). The data set is classed as cell-based. As to the method: The assessment of oxaborole-mediated killing of T. b. brucei in vitro was conducted using the CellTiter Glo kit (Promega, Inc., Madison, WI) to measure trypanosome ATP content as a real-time indicator of viability. Test compounds were serially diluted from 5 to 0.01 µg/mL into white wall-clear bottom 96-well plates (Corning Inc., Lowell, MA) containing HMI-9 media. 1×10^4 trypanosomes were added to each well. At specified intervals, the CellTiter Glo reagent was added to lyse the parasites and the plates were incubated for 10 min in the dark. Luminescence was quantified using an EnVision plate reader. All determinations were done in duplicate. Time-kill parameters were determined from plots of parasite viability versus incubation time for each concentration tested.
In general terms: ATP-based viability assays read luminescence as a measure of living cells.

pIC50: −log10 of the molar value. Where two headings read alike, the source gives them in different places.

T7 sequence (P08183 whole entry): as above
T4 sequence (P10635 whole entry): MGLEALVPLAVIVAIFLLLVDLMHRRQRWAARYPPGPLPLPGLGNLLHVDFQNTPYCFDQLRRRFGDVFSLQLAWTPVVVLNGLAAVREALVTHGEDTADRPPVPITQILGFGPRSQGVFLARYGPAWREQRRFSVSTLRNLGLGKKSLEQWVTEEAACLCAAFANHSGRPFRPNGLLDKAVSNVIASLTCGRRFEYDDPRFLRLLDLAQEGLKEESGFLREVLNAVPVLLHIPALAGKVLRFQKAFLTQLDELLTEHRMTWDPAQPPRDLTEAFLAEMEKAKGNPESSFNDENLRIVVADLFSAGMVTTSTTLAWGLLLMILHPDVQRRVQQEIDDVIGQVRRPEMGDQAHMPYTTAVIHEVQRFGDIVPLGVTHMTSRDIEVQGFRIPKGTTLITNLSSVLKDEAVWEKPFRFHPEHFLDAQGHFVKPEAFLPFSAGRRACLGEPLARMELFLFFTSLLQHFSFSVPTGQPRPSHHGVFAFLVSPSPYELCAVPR

Take `CC1(C)OB(O)c2cc(NC(=O)c3ccc(F)cc3C(F)(F)F)ccc21` [SCYX-7158]: the cure rate was 80% in [1] (12.5 mg/kg once daily oral over 7 days starting day 21 after infection) and 100% in data set [1] (25 mg/kg once daily oral, 7 doses, starting day 21 after infection). Also, the “lowest effective oral dose in murine stage 2 study” value in data set [1] (QD×7 days, oral) is reported as 12.5 mg/kg. Further, the pIC50 (as a rule, the IC50 on a negative log10 scale, so that one unit is a factor of ten) is 4.64 in [2]; less than 4.00 in data set [3]; 4.32 in [4]; 4.68 in [5]; 4.63 in [6]. In addition, the Papp A→B (usually the apparent permeability from the apical to the basolateral side of a cell layer) at 1 h, 3 µM was 85.3 ×10⁻⁶ cm/s in data set [7] (MDCK-MDR1, with GF120918 2 µM, in presence of P-gp inhibitor GF120918 (2 µM), read-out: Papp A→B + GF120918) and 77.6 ×10⁻⁶ cm/s in data set [7] (MDCK-MDR1, apical to basolateral, 3 µM (1.1 µg/mL), 1 h, read-out: Papp A→B). For the same molecule, the “AQ (absorption quotient)” value in data set [8] (calculated from Papp with and without GF120918) is listed as 0.09. The P-gp substrate status entry in [8] (from AQ) is given as “not a P-gp substrate”. In addition, in data set [9] (within 8 h of exposure at 1.25 µg/mL (about 2 times the MIC)), the reduction in viability entry was “greater than 50%”. In [9] (within 24 h of exposure, 1.25 µg/mL), this molecule yielded a parasites killed greater than 99%.
